Measurements published in patent US20230181463A1, “OLEOGEL AND OLEOPASTE COMPOSITIONS AND USES THEREOF” (Massachusetts Institute of Technology, priority 2020, published 2023).

What was measured:
[1] = In silico pharmacokinetic modelling of AZT oleogels; settings: first order fit to in vitro release data
Method: In vivo pharmacokinetics of the various formulations were calculated using the data obtained from in vitro release studies. To achieve this, pharmacokinetic modeling studies were conducted in two steps. In the first step, first order equations to in vitro release data were used to estimate rate constant for drug release (krel) and the extent of drug release (Agel, t=0). The rate constant of drug release was considered a measure of the speed of drug release. The extent of drug release or Agel, t=0 was a measure of the total amount of drug that could be released from the formulation at 90 min, which likely depended on the partition coefficient for AZT between the oily formulation and aqueous release medium. […] In the second step, one-compartment oral drug administration model was constructed. Using krel and Agel, t=0 as input, pharmacokinetic parameters such as maximum concentration (Cmax), time to maximum concentration (Tmax) and serum drug exposure or area under the curve (AUCfit) were determined. […]

[2] = Drug release from AZT oleogels in lipolysis medium (simulated intestinal fluid); type: in vitro ADME; settings: in vitro release over 90 minutes, trapezoidal rule, triplicates
Method: Extensive in vitro release studies were conducted to understand the impact of oil, solubilizer and gelling agent on the release of AZT in simulated intestinal fluid (SIF).
Preparation of lipolysis buffer: To prepare lipolysis buffer, tris-maleate (0.474 g), calcium chloride dihydrate (0.275 g), sodium chloride (8.766 g) were weighed and distilled water was added to bring the volume to 1 L. The pH of the buffer was adjusted to pH 6.5 using 5N sodium hydroxide.
Preparation of lipolysis media: L—a phosphotidylcholine (0.576 g/l) and sodium taurodeoxycholate hydrate (1.619 g/l) were added to the lipolysis buffer. Next, the solution was stirred overnight to dissolve all ingredients.
Preparation of pancreatin solution: Three grams of pancreatin was added to 15 ml of lipolysis buffer and stirred on a magnetic stir plate for 10 minutes. The mixture was centrifuged at 28000g, at 5° C. for 10 minutes. The supernant was collected and the pH of the supernant was adjusted to pH 6.5 using 5N sodium hydroxide solution.
Preparation of negative control: To avoid the technical difficulty in material weighing, 40 mg of AZT powder was dispersed into 10 ml of methanol. It was sonicated for 1 minute to get a clear solution. One milliliter was taken into 3 separate Falcon tube and remained still to evaporate the solvent. […]

SMILES: CC[C@H]1OC(=O)[C@H](C)[C@@H](O[C@H]2C[C@@](C)(OC)[C@@H](O)[C@H](C)O2)[C@H](C)[C@@H](O[C@@H]2O[C@H](C)C[C@H](N(C)C)[C@H]2O)[C@](C)(O)C[C@@H](C)CN(C)[C@H](C)[C@@H](O)[C@]1(C)O [Control, azithromycin]
- average krel [1]: 5.28 h⁻¹
- Average Agel, t=0 ([1]; 4.00 mg AZT put in): 3.98 mg
- Average AUC [2]: 127.23 µg·h/mL
